Laboratory results: US7718768B2, “Biologically active peptide [sequence]” (CMS Peptides Patent Holding Company Limited, priority 2001, dated 2010)
No end group written: not given here.

Experiment: body weight of rats fed high nutrition diet (obesity induced by over-feeding)
Assay type: in vivo, Sprague-Dawley (SD) rats
Protocol: Sprague-Dawley (SD) rats, weighing 145±10 g, were supplied by the Center of Experimental Animal of Guangzhou University of Traditional Chinese Medicine, PR China (certificate No.: 2000A019). Peptides were custom synthesized (of L-amino acids origin) by American Peptide Company, Inc., USA, and were diluted to 10 μg/ml in normal saline. The high and normal nutrition diets were prepared in compliance with the guideline for pre-clinical research of anti-obesity drug, issued by SDA (State Drug Administration), PR China^[1].
Healthy rats were randomized into the experiment, positive control, and negative control groups. 10 rats per group, half male and half female. The experiment group of rats was fed with high nutrition diet for 5 weeks with simultaneous intramuscular injection of 300 μg/kg/day peptide, once per day. Positive control group received the same high nutrition diet but placebo saline injection, while negative control group, used to proof successful establishment of obesity model, received normal nutrition diet and placebo saline injection. After 5 weeks treatment, injection was stopped and the same diet was maintained for another 3 weeks. The rats were weighed at once per week interval. Behaviour of the rats was also observed.
The data were presented as mean±standard deviation. Paired t test or single-factor ANOVA was used for inter and intra group comparison. Statistical significance cut-off was at P≦0.05.

PSIVGRPRHQGVM [CMS015] gave a body weight (Pre-treatment, Female n = 5, 300 μg/kg/day intramuscular) of 129.2 ± 3.3 g, a body weight (Pre-treatment, Male n = 5, 300 μg/kg/day intramuscular) of 145.6 ± 8.5 g and a body weight (Week 1, Female, 300 μg/kg/day intramuscular) of 157.8 ± 8.3 g. The body weight (Week 1, Male, 300 μg/kg/day intramuscular) was 183.8 ± 10.6 g, the body weight (Week 2, Female, 300 μg/kg/day intramuscular) was 176.0 ± 11.2 g and the body weight (Week 2, Male, 300 μg/kg/day intramuscular) was 220.6 ± 12.2 g. It also gave a body weight (Week 3, Female, 300 μg/kg/day intramuscular) of 196.0 ± 10.5 g, a body weight (Week 3, Male, 300 μg/kg/day intramuscular) of 239.0 ± 16.0 g and a body weight (Week 4, Female, 300 μg/kg/day intramuscular) of 212.0 ± 13.5 g. For the same sequence, the body weight (Week 4, Male, 300 μg/kg/day intramuscular) was 258.2 ± 18.1 g, the body weight (Week 5 (last week of injection), Female, 300 μg/kg/day intramuscular) was 221.4 ± 13.2 g and the body weight (Week 5 (last week of injection), Male, 300 μg/kg/day intramuscular) was 268.8 ± 17.7 g. For the same sequence, the body weight (Week 6 (injection stopped after week 5), Female) was 235.6 ± 16.3 g, the body weight (Week 6 (injection stopped after week 5), Male) was 299.4 ± 21.2 g and the body weight (Week 7 (injection stopped after week 5), Female) was 242.2 ± 18.8 g. It also gave a body weight (Week 7 (injection stopped after week 5), Male) of 310.4 ± 25.9 g, a body weight (Week 8 (injection stopped after week 5), Female) of 252.8 ± 22.5 g and a body weight (Week 8 (injection stopped after week 5), Male) of 337.4 ± 30.6 g.
